Measured values published in the NIST ThermoML archive (doi:10.1016/j.tca.2017.12.010).
± gives the expanded uncertainty stated by the source.

Key:
[1] = Liquid, DSC
[2] = Boiling temperature at pressure P; details: Liquid, DSC

## C1CCCCC1 [cyclohexane]
[1]; 353.82 K
  vapor or sublimation pressure: 101.3 ± 7.9 kPa

## CO [methanol]
[1]; 337.78 K
  vapor or sublimation pressure: 101.3 ± 7.9 kPa

## CC(C)O [propan-2-ol]
[1]; 355.71 K
  vapor or sublimation pressure: 101.3 ± 7.9 kPa

## Cc1ccccc1 [toluene]
[1]; 383.6 K
  vapor or sublimation pressure: 101.3 ± 7.9 kPa

## O [water]
[2]; 92.9 kPa
  Boiling temperature at pressure P: 97.82 ± 1.6 °C
[2]; 93 kPa
  Boiling temperature at pressure P: 97.84 ± 1.6 °C
[2]; 93.5 kPa
  Boiling temperature at pressure P: 97.94 ± 1.6 °C
[2]; 94.1 kPa
  Boiling temperature at pressure P: 98.06 ± 1.6 °C
[2]; 101.3 kPa
  Boiling temperature at pressure P: 100.01 ± 1.6 °C
[2]; 395 kPa
  Boiling temperature at pressure P: 143.21 ± 1.6 °C
[2]; 585 kPa
  Boiling temperature at pressure P: 157.83 ± 1.6 °C
[2]; 592 kPa
  Boiling temperature at pressure P: 158.51 ± 1.6 °C
[2]; 791 kPa
  Boiling temperature at pressure P: 169.38 ± 1.6 °C
[2]; 1091 kPa
  Boiling temperature at pressure P: 183.29 ± 1.6 °C
[2]; 1392 kPa
  Boiling temperature at pressure P: 194.26 ± 1.6 °C
[2]; 1689 kPa
  Boiling temperature at pressure P: 203.20 ± 1.6 °C
[2]; 2088 kPa
  Boiling temperature at pressure P: 213.26 ± 1.6 °C
